≈ marks a conversion by molar mass, not a printed value. Where two headings read alike, the source gives them in different places.
How the values were obtained:
[1] = system: S. aureus GISA NRS 2; ATCC 700698; assay: microbe, parasite or virus in culture; conditions: n = 2
Procedure: (§1) A positive control of a row of just the bacteria and a negative control of only the medium were included for every plate tested.
(§2) The compounds along with standard antibiotics were serially diluted 2-fold across the 96-well plates. […] A sample of each culture was then diluted 40-fold in fresh MH broth (in presence and absence of Tween) and incubated at 37°C for 2 to 3 h.

[2] = system: S. pneumoniae ATCC 700677 (MDR); assay: microbe, parasite or virus in culture; conditions: n = 2
Procedure: as §1, §2

[3] = system: MSSA S. aureus ATCC 25923; assay: microbe, parasite or virus in culture; conditions: n = 2
Procedure: as §1, §2

[4] = system: E. faecalis ATCC 29212; assay: microbe, parasite or virus in culture; conditions: n = 2
Procedure: as §1, §2

[5] = system: S. pneumoniae ATCC 33440; assay: microbe, parasite or virus in culture; conditions: n = 2
Procedure: as §1, §2

[6] = literature values, reference given; cited from earlier work
Description: Other assay additives can affect MIC values. […] Plasma protein binding has been implicated as a major factor limiting the active free concentration of many clinically important antibiotics ([37][–][42]).

[7] = system: S. pyogenes ATCC 12344; conditions: n = 2
Procedure: as §1, §2

[8] = cited from earlier work
Description: Other assay additives can affect MIC values. […] This in turn translates into reduced ...

[9] = system: MRSA; conditions: literature value; cited from earlier work
Description: TABLE 1 Literature MIC values for tested antibiotics | column: MIC (µg/ml) (reference[s]) / MRSA

[10] = system: MRSA ATCC 43300
Procedure: as §1, §2
For experiments in the presence of surfactant, 2% beractant (25 mg/ml) was added to the mid-log-phase cultures and mixed gently and added to all the 96-well plates. For experiments in the presence of serum, a mixture of 50% of human serum along with 50% MHB was prepared and used throughout the experiment.

For CCCCCCCCCCNCCN[C@@]1(C)C[C@H](O[C@H]2[C@H](Oc3c4cc5cc3Oc3ccc(cc3Cl)[C@@H](O)[C@@H](NC(=O)[C@@H](CC(C)C)NC)C(=O)N[C@@H](CC(N)=O)C(=O)N[C@H]5C(=O)N[C@H]3C(=O)N[C@H](C(=O)N[C@H](C(=O)O)c5cc(O)c(CNCP(=O)(O)O)c(O)c5-c5cc3ccc5O)[C@H](O)c3ccc(c(Cl)c3)O4)O[C@H](CO)[C@@H](O)[C@@H]2O)O[C@@H](C)[C@H]1O [Telavancin, telavancin], the MIC ([1]; Corning NBS, MHB +T80) was 0.125 µg/mL (≈ 0.0712 µM), the MIC ([1]; Corning NBS, MHB -T80) was 0.06 to 0.125 µg/mL and the MIC ([1]; Corning PS, MHB +T80) was 0.125 µg/mL (≈ 0.0712 µM). It also gave an MIC ([1]; Corning PS, MHB -T80) of 0.125 to 0.5 µg/mL, an MIC ([1]; Corning TC, MHB +T80) of 0.25 µg/mL (≈ 0.142 µM) and an MIC ([1]; Corning TC, MHB -T80) of 1 to 8 µg/mL. It also gave an MIC ([2]; Corning NBS, MHB +T80) of 0.06 to 0.125 µg/mL, an MIC ([2]; Corning NBS, MHB -T80) of 0.03 to 0.06 µg/mL and an MIC ([2]; Corning PS, MHB +T80) of 0.06 to 0.125 µg/mL. It also gave an MIC ([2]; Corning PS, MHB -T80) of 0.06 µg/mL (≈ 0.0342 µM), an MIC ([2]; Corning TC, MHB +T80) of 0.125 µg/mL (≈ 0.0712 µM) and an MIC ([2]; Corning TC, MHB -T80) of 0.5 to 2 µg/mL. It also gave an MIC ([3]; Corning NBS, MHB +T80) of 0.125 to 0.25 µg/mL, an MIC ([3]; Corning NBS, MHB -T80) of 0.06 to 0.125 µg/mL and an MIC ([3]; Corning PS, MHB +T80) of 0.25 to 0.5 µg/mL. It also gave an MIC ([3]; Corning PS, MHB -T80) of 0.25 to 2 µg/mL, an MIC ([3]; Corning TC, MHB +T80) of 0.25 µg/mL (≈ 0.142 µM) and an MIC ([3]; Corning TC, MHB -T80) of 0.5 to 2 µg/mL. It also gave an MIC ([4]; Corning NBS, MHB +T80) of 0.06 µg/mL (≈ 0.0342 µM), an MIC ([4]; Corning NBS, MHB -T80) of 0.06 to 0.125 µg/mL and an MIC ([4]; Corning PS, MHB +T80) of 0.03 to 0.06 µg/mL. It also gave an MIC ([4]; Corning PS, MHB -T80) of 0.125 to 0.5 µg/mL, an MIC ([4]; Corning TC, MHB +T80) of 0.06 to 0.125 µg/mL and an MIC ([4]; Corning TC, MHB -T80) of 0.5 to 4 µg/mL. The MIC ([5]; Corning NBS, MHB +T80) was 0.125 µg/mL (≈ 0.0712 µM), the MIC ([5]; Corning NBS, MHB -T80) was 0.125 µg/mL (≈ 0.0712 µM) and the MIC ([5]; Corning PS, MHB +T80) was 0.125 µg/mL (≈ 0.0712 µM). It also gave an MIC ([5]; Corning PS, MHB -T80) of 0.5 to 4 µg/mL, an MIC ([5]; Corning TC, MHB +T80) of 0.25 µg/mL (≈ 0.142 µM) and an MIC ([5]; Corning TC, MHB -T80) of 1 to 2 µg/mL. For the same compound, the protein binding [6] was 90 to 93%, the MIC ([7]; Corning NBS, MHB +T80) was 3 to 15 ng/mL and the MIC ([7]; Corning NBS, MHB -T80) was no more than 3 ng/mL. For the same compound, the MIC ([7]; Corning PS, MHB -T80) was no more than 3 ng/mL, the MIC ([7]; Corning TC, MHB +T80) was 7 to 15 ng/mL and the MIC ([7]; Corning TC, MHB -T80) was no more than 3 ng/mL. For the same compound, the half-life [8] was 8 h, the “MIC (literature)” value [9] was 0.06 ([66], [67]) µg/ml and the MIC ([10]; Corning NBS, MH + 2% LHB, 2% LS, n = 2) was 0.125 µg/mL. For the same compound, the MIC ([10]; Corning NBS, MH + 2% LHB, 50% HS, n = 2) was 0.25 µg/mL, the MIC ([10]; Corning NBS, MH + 2% LHB, no additive, n = 2) was 0.06 to 0.125 µg/mL and the MIC ([10]; Corning NBS, MH + T80, 2% LS, n = 2) was 0.06 to 0.125 µg/mL. It also gave an MIC ([10]; Corning NBS, MH + T80, 50% HS, n = 2) of 0.25 µg/mL, an MIC ([10]; Corning NBS, MH, 2% LS, n = 2) of 0.125 µg/mL (≈ 0.0712 µM) and an MIC ([10]; Corning NBS, MH, 50% HS, n = 2) of 0.25 µg/mL (≈ 0.142 µM). For the same compound, the MIC ([10]; Corning PS, MH + 2% LHB, 2% LS, n = 2) was 0.125 µg/mL, the MIC ([10]; Corning PS, MH + 2% LHB, 50% HS, n = 2) was 0.125 to 0.25 µg/mL and the MIC ([10]; Corning PS, MH + 2% LHB, no additive, n = 2) was 0.06 µg/mL. The MIC ([10]; Corning PS, MH + T80, 2% LS, n = 2) was 0.06 to 0.25 µg/mL, the MIC ([10]; Corning PS, MH + T80, 50% HS, n = 2) was 0.25 µg/mL and the MIC ([10]; Corning PS, MH, 2% LS, n = 2) was 0.03 to 0.125 µg/mL. It also gave an MIC ([10]; Corning PS, MH, 50% HS, n = 2) of 0.125 to 0.25 µg/mL, an MIC ([10]; Corning TC, MH + 2% LHB, 2% LS, n = 2) of 0.25 to 1 µg/mL and an MIC ([10]; Corning TC, MH + 2% LHB, 50% HS, n = 2) of 2 to 8 µg/mL. For the same compound, the MIC ([10]; Corning TC, MH + 2% LHB, no additive, n = 2) was 0.125 µg/mL, the MIC ([10]; Corning TC, MH + T80, 2% LS, n = 2) was 0.125 to 0.25 µg/mL and the MIC ([10]; Corning TC, MH + T80, 50% HS, n = 2) was 0.25 to 1 µg/mL. It also gave an MIC ([10]; Corning TC, MH, 2% LS, n = 2) of 0.25 to 0.5 µg/mL, an MIC ([10]; Corning TC, MH, 50% HS, n = 2) of 0.5 to 1 µg/mL and an MIC ([10]; Corning flat NBS plate, MHB +0.002% T80, no further additive, n = 2) of 0.125 µg/mL (≈ 0.0712 µM). The MIC ([10]; Corning flat NBS plate, MHB −T80, no additive, n = 2) was 0.03 to 0.06 µg/mL, the MIC ([10]; Corning flat PS plate, MHB +0.002% T80, no further additive, n = 2) was 0.03 to 0.06 µg/mL and the MIC ([10]; Corning flat PS plate, MHB −T80, no additive, n = 2) was 0.06 µg/mL (≈ 0.0342 µM). For the same compound, the MIC ([10]; Corning flat TC plate, MHB +0.002% T80, no further additive, n = 2) was 0.125 to 0.25 µg/mL, the MIC ([10]; Corning flat TC plate, MHB −T80, no additive, n = 2) was 1 µg/mL (≈ 0.57 µM) and the MIC ([10]; Nunc U TC plate, MHB +0.002% T80, n = 2) was 0.25 to 0.5 µg/mL. It also gave an MIC ([10]; Nunc U TC plate, MHB −T80, n = 2) of 0.5 µg/mL (≈ 0.285 µM), an MIC ([10]; Nunc flat PS plate, MHB +0.002% T80, n = 2) of 0.06 µg/mL (≈ 0.0342 µM) and an MIC ([10]; Nunc flat PS plate, MHB −T80, n = 2) of 0.06 µg/mL (≈ 0.0342 µM). For the same compound, the MIC ([10]; Nunc flat TC plate, MHB +0.002% T80, n = 2) was 0.125 to 0.25 µg/mL, the MIC ([10]; Nunc flat TC plate, MHB −T80, n = 2) was 0.5 to 1 µg/mL and the “MIC” value ([10]; TC plates without additive) was 0.5 to 1 µg/mL. It also gave an MIC ([10]; Trek PS, MH + 2% LHB, 2% LS, n = 2) of 0.06 to 0.25 µg/mL, an MIC ([10]; Trek PS, MH + 2% LHB, 50% HS, n = 2) of 0.06 to 0.125 µg/mL and an MIC ([10]; Trek PS, MH + 2% LHB, no additive, n = 2) of 0.015 µg/mL. The MIC ([10]; Trek PS, MH + T80, 2% LS, n = 2) was 0.06 µg/mL, the MIC ([10]; Trek PS, MH + T80, 50% HS, n = 2) was 0.125 to 0.25 µg/mL and the MIC ([10]; Trek PS, MH, 2% LS, n = 2) was 0.03 to 0.06 µg/mL. For the same compound, the MIC ([10]; Trek PS, MH, 50% HS, n = 2) was 0.125 µg/mL (≈ 0.0712 µM), the MIC ([10]; Trek flat PS plate, MHB +0.002% T80, no further additive, n = 2) was 0.03 to 0.06 µg/mL and the MIC ([10]; Trek flat PS plate, MHB −T80, no additive, n = 2) was 0.03 to 0.06 µg/mL. The “MIC” value ([10]; all 3 untreated PS plates, with and without added T80) was “around 0.06 µg/ml”.

— article PMC6325200, “Effects of Microplate Type and Broth Additives on Microdilution MIC Susceptibility Assays” (Antimicrobial Agents and Chemotherapy, 2018)
